From the supplement of paper PMC10307832

How the values were obtained:
Test in all cases: relative viability (nuclei count vs DMSO), 5 days (fraction); higher = more cells survive
AZ23 = compound: CC(C)Oc1cc(Nc2nc(N[C@@H](C)c3ccc(F)cn3)ncc2Cl)n[nH]1 [AZ23]
Summary of the method: (§1)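 For viability, nuclei in each treated well were divided by nuclei in vehicle wells and the median across plates was taken. Lung cancer cell lines in 1536-well plates were pinned with five library-drug doses (not always all listed) spaced by √10, cultured 5 days without medium change, and imaged at 4× after Hoechst staining, with plates passing only at control CV below 25% and at least one doubling.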

HG-5-88-01 = compound: CC(C)S(=O)(=O)C1=CC=CC=C1NC2=NC(=NC(=C2Cl)N)NC3=C(C=C(C=C3)N4CCC(CC4)C(=O)N)OC [HG-5-88-01]
Summary of the method: as §1

Embelin = compound: CCCCCCCCCCCC1=C(O)C(=O)C=C(O)C1=O [Embelin]
Summary of the method: as §1

[1] = compound: C[C@@H]1CN(CC(=O)Nc2ccc3c(c2)Cc2cccc(-c4cc(=O)cc(N5CCOCC5)o4)c2S3)C[C@H](C)O1
Summary of the method: as §1

Vatalanib = compound: Clc1ccc(Nc2nnc(Cc3ccncc3)c3ccccc23)cc1 [Vatalanib]
Summary of the method: as §1

Row | Cell Line | relative viability (AZ23; 0.01 µM) | relative viability (AZ23; 0.03162 µM) | relative viability (AZ23; 0.3162 µM) | relative viability (HG-5-88-01; 0.04 µM) | relative viability (HG-5-88-01; 0.1265 µM) | relative viability (HG-5-88-01; 0.4 µM) | relative viability (HG-5-88-01; 1.265 µM) | relative viability (HG-5-88-01; 4 µM) | relative viability (Embelin; 0.08 µM) | relative viability (Embelin; 0.8 µM) | relative viability (Embelin; 2.53 µM) | relative viability (Embelin; 8 µM) | relative viability ([1]; 0.04 µM) | relative viability ([1]; 0.1265 µM) | relative viability ([1]; 0.4 µM) | relative viability ([1]; 4 µM) | relative viability (Vatalanib; 0.04 µM) | relative viability (Vatalanib; 0.1265 µM) | relative viability (Vatalanib; 0.4 µM) | relative viability (Vatalanib; 1.265 µM) | relative viability (Vatalanib; 4 µM)
1 | BEN | 1.05 | 1.12 | 0.994 | 0.866 | 1.07 | 0.884 | 0.873 | 1.05 | 1.04 | 1.14 | 1.1 | 1.02 | 0.929 | 0.881 | 1.12 | 0.955 | 0.954 | 0.904 | 0.951 | 0.882 | 0.946
2 | SW 1573 | 1.15 | 1.16 | 0.881 | 0.962 | 0.978 | 0.969 | 0.834 | 0.864 | 0.972 | 1.33 | 1.16 | 1.02 | 0.992 | 1.04 | 0.922 | 1.06 | 0.957 | 0.995 | 1.19 | 0.868 | 1.03
3 | PC-14 | 0.748 | 1.22 | 1.08 | 1.05 | 0.985 | 0.901 | 0.735 | 0.38 | 0.997 | 1.15 | 1 | 1.06 | 1 | 0.943 | 1.02 | 0.863 | 1.01 | 0.921 | 0.905 | 0.904 | 0.958
4 | PC-3 [JPC-3] | 1.08 | 1.12 | 1.04 | 1.08 | 1.05 | 0.998 | 0.749 | 0.477 | 1.08 | 1.05 | 1.11 | 0.974 | 0.976 | 1.01 | 1.03 | 0.986 | 0.974 | 0.984 | 1 | 1.01 | 0.988
5 | NCI-H727 | 0.832 | 0.94 | 0.973 | 1.08 | 0.883 | 0.958 | 0.606 | 0.63 | 1.03 | 0.935 | 0.958 | 0.976 | 0.93 | 0.885 | 0.991 | 0.882 | 0.943 | 0.858 | 0.899 | 0.832 | 0.887
6 | NCI-H1437 | 1.02 | 1.09 | 1 | 1.04 | 1.04 | 0.995 | 0.917 | 1.01 | 0.961 | 1.11 | 1.04 | 0.709 | 0.977 | 0.995 | 1.06 | 0.885 | 0.984 | 0.987 | 1.01 | 0.938 | 0.969
7 | ABC-1 | 0.82 | 1.18 | 1.02 | 0.825 | 1 | 0.732 | 0.75 | 0.778 | 0.866 | 1.11 | 0.893 | 1.03 |  | 1.11 | 0.983 | 1.12 | 0.977 | 0.647 | 0.803 | 0.89 | 0.851
8 | NCI-H1355 | 1.14 | 1.03 | 1.03 | 1.01 | 1.06 | 0.932 | 0.943 | 0.698 | 0.996 | 1.16 | 1.03 | 0.775 | 0.984 | 0.964 | 0.959 | 0.852 | 1.03 | 0.99 | 1.07 | 0.938 | 0.969
9 | NCI-H1650 | 0.826 | 1.17 | 1.12 | 0.904 | 0.92 | 0.812 | 0.871 | 0.723 | 0.994 | 1.08 | 0.942 | 0.877 | 0.95 | 0.999 | 0.949 | 0.769 | 1.06 | 0.851 | 0.799 | 0.818 | 0.851
10 | NCI-H1623 | 0.984 | 0.964 | 0.955 | 1.09 | 0.979 | 0.983 |  | 0.856 | 0.926 | 0.988 | 1.06 | 0.972 | 0.942 | 0.973 | 1.02 | 0.957 | 0.963 | 1.14 | 1.04 | 0.879 | 0.933
11 | NCI-H522 | 1.04 | 1.12 | 1.09 | 1.04 | 0.903 | 0.849 | 0.804 | 0.706 | 1.01 | 1.13 | 1.15 | 0.821 | 0.77 | 1 | 1.11 | 0.864 | 1.1 | 0.767 | 0.966 | 0.917 | 0.876
12 | NCI-H23 |  | 1.07 | 0.887 | 1.03 | 0.993 | 0.959 | 0.824 | 0.392 | 0.987 | 1.07 | 1.03 | 0.705 | 1.08 | 0.923 | 0.943 | 0.96 | 0.948 | 0.833 | 1.04 | 0.961 | 0.853
13 | COR-L 105 | 0.843 | 1.1 | 1.04 | 0.825 | 0.969 | 0.883 | 0.726 | 0.685 | 1.04 | 1.1 | 0.89 | 0.981 | 0.921 | 1.01 | 1.05 | 0.805 | 0.901 | 0.895 | 1.03 | 0.892 | 0.835
14 | HCC-827 | 1.06 | 1.13 | 1.08 | 1.06 | 1.05 | 1.06 | 1.03 | 0.615 | 1.03 | 1.11 | 1.09 | 1.09 | 1.05 | 1.04 | 1.08 | 1.07 | 1.02 | 0.949 | 0.924 | 1.04 | 0.996
15 | RERF-LC-KJ | 1.08 | 0.987 | 1.03 | 1.05 | 0.992 | 0.975 | 0.865 | 0.724 | 0.978 | 1.01 | 1.07 | 1 | 1.01 | 1.01 | 0.962 | 0.872 | 1.02 | 0.961 | 1.04 | 0.857 | 0.857
16 | NCI-H1915 | 1.1 | 1.06 | 1.01 | 1.03 | 1.06 | 1.01 | 1.13 | 0.745 | 1.08 | 1.07 | 1.04 | 0.983 | 0.966 | 0.985 | 1.01 | 0.748 | 1.05 | 0.943 | 1.01 | 0.981 | 0.992
